Experimental data published in the supplement of paper PMC4380931.
± gives the standard deviation of the averaged measurements.

Experiments:
K2 = experiment: apoptotic fraction of cells (caspase-3 NucView488 positive); higher = more apoptosis
Procedure: (§1)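 BRAF V600E/D melanoma cell lines were seeded in 96-well plates, treated in 4 replicates with seven doses (3.16 nM to 3.16 uM) of RAF/MEK inhibitors for 24, 48 or 72 h, and stained with Hoechst 33342 (nuclei) and DEVD-NucView488 caspase-3 substrate. Plates were imaged on an Operetta. Relative viability is the cell count normalised to a DMSO-treated control; apoptosis fraction is the fraction of NucView488-positive nuclei.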

COLO858 [1] = experiment: as above
Procedure: as §1

WM1552C = experiment: as above
Procedure: as §1

MZ7MEL = experiment: as above
Procedure: as §1

WM115 = experiment: as above
Procedure: as §1

COLO858 [2] = experiment: relative viability (cell count relative to DMSO-treated control) (fraction of DMSO control); higher = more viable cells / less drug effect
Procedure: as §1

C32 = experiment: as above
Procedure: as §1

Cn1cnc2c(F)c(Nc3ccc(Br)cc3Cl)c(C(=O)NOCCO)cc21 [Selumetinib]
apoptotic fraction of cells (K2; 24 h, 0.00316 µM): 0.00506 ± 0.0011
apoptotic fraction of cells (K2; 24 h, 0.01 µM): 0.00321 ± 0.002
apoptotic fraction of cells (K2; 24 h, 0.0316 µM): 0.00454 ± 0.0034
apoptotic fraction of cells (K2; 24 h, 0.1 µM): 0.0128 ± 0.0044
apoptotic fraction of cells (K2; 24 h, 0.316 µM): 0.0266 ± 0.012
apoptotic fraction of cells (K2; 24 h, 1 µM): 0.123 ± 0.04
apoptotic fraction of cells (K2; 24 h, 3.16 µM): 0.142 ± 0.031
apoptotic fraction of cells (K2; 48 h, 0.00316 µM): 0.0027 ± 0.0014
apoptotic fraction of cells (K2; 48 h, 0.01 µM): 0.00331 ± 0.0011
apoptotic fraction of cells (K2; 48 h, 0.0316 µM): 0.0058 ± 0.0011
apoptotic fraction of cells (K2; 48 h, 0.1 µM): 0.0372 ± 0.0084
apoptotic fraction of cells (K2; 48 h, 0.316 µM): 0.0691 ± 0.013
apoptotic fraction of cells (K2; 48 h, 1 µM): 0.199 ± 0.022
apoptotic fraction of cells (K2; 48 h, 3.16 µM): 0.332 ± 0.019
apoptotic fraction of cells (COLO858 [1]; 24 h, 0.00316 µM): 0.0501 ± 0.004
apoptotic fraction of cells (COLO858 [1]; 24 h, 0.01 µM): 0.0441 ± 0.0024
apoptotic fraction of cells (COLO858 [1]; 24 h, 0.0316 µM): 0.0433 ± 0.0027
apoptotic fraction of cells (COLO858 [1]; 24 h, 0.1 µM): 0.0474 ± 0.0037
apoptotic fraction of cells (COLO858 [1]; 24 h, 0.316 µM): 0.083 ± 0.0066
apoptotic fraction of cells (COLO858 [1]; 24 h, 1 µM): 0.137 ± 0.011
apoptotic fraction of cells (COLO858 [1]; 24 h, 3.16 µM): 0.149 ± 0.012
apoptotic fraction of cells (COLO858 [1]; 48 h, 0.00316 µM): 0.0496 ± 0.0044
apoptotic fraction of cells (COLO858 [1]; 48 h, 0.01 µM): 0.049 ± 0.0057
apoptotic fraction of cells (COLO858 [1]; 48 h, 0.0316 µM): 0.0473 ± 0.0057
apoptotic fraction of cells (COLO858 [1]; 48 h, 0.1 µM): 0.0649 ± 0.01
apoptotic fraction of cells (COLO858 [1]; 48 h, 0.316 µM): 0.155 ± 0.0036
apoptotic fraction of cells (COLO858 [1]; 48 h, 1 µM): 0.232 ± 0.045
apoptotic fraction of cells (COLO858 [1]; 48 h, 3.16 µM): 0.313 ± 0.053
apoptotic fraction of cells (COLO858 [1]; 72 h, 0.00316 µM): 0.0958 ± 0.01
apoptotic fraction of cells (COLO858 [1]; 72 h, 0.01 µM): 0.0753 ± 0.0071
apoptotic fraction of cells (COLO858 [1]; 72 h, 0.0316 µM): 0.0678 ± 0.0046
apoptotic fraction of cells (COLO858 [1]; 72 h, 0.1 µM): 0.0769 ± 0.011
apoptotic fraction of cells (COLO858 [1]; 72 h, 0.316 µM): 0.134 ± 0.025
apoptotic fraction of cells (COLO858 [1]; 72 h, 1 µM): 0.259 ± 0.038
apoptotic fraction of cells (COLO858 [1]; 72 h, 3.16 µM): 0.383 ± 0.037
apoptotic fraction of cells (WM1552C; 24 h, 0.00316 µM): 0.0571 ± 0.0099
apoptotic fraction of cells (WM1552C; 24 h, 0.01 µM): 0.0689 ± 0.0071
apoptotic fraction of cells (WM1552C; 24 h, 0.0316 µM): 0.0771 ± 0.0033
apoptotic fraction of cells (WM1552C; 24 h, 0.1 µM): 0.0894 ± 0.0042
apoptotic fraction of cells (WM1552C; 24 h, 0.316 µM): 0.0876 ± 0.004
apoptotic fraction of cells (WM1552C; 24 h, 1 µM): 0.112 ± 0.0024
apoptotic fraction of cells (WM1552C; 24 h, 3.16 µM): 0.0803 ± 0.0081
apoptotic fraction of cells (WM1552C; 48 h, 0.00316 µM): 0.065 ± 0.0094
apoptotic fraction of cells (WM1552C; 48 h, 0.01 µM): 0.0655 ± 0.0046
apoptotic fraction of cells (WM1552C; 48 h, 0.0316 µM): 0.0575 ± 0.0066
apoptotic fraction of cells (WM1552C; 48 h, 0.1 µM): 0.0656 ± 0.0086
apoptotic fraction of cells (WM1552C; 48 h, 0.316 µM): 0.0753 ± 0.012
apoptotic fraction of cells (WM1552C; 48 h, 1 µM): 0.0765 ± 0.021
apoptotic fraction of cells (WM1552C; 48 h, 3.16 µM): 0.1 ± 0.022
apoptotic fraction of cells (WM1552C; 72 h, 0.00316 µM): 0.0885 ± 0.0083
apoptotic fraction of cells (WM1552C; 72 h, 0.01 µM): 0.073 ± 0.0076
apoptotic fraction of cells (WM1552C; 72 h, 0.0316 µM): 0.0737 ± 0.0048
apoptotic fraction of cells (WM1552C; 72 h, 0.1 µM): 0.0814 ± 0.0047
apoptotic fraction of cells (WM1552C; 72 h, 0.316 µM): 0.104 ± 0.0073
apoptotic fraction of cells (WM1552C; 72 h, 1 µM): 0.146 ± 0.0068
apoptotic fraction of cells (WM1552C; 72 h, 3.16 µM): 0.19 ± 0.0065
apoptotic fraction of cells (MZ7MEL; 24 h, 0.00316 µM): 0.0105 ± 0.0029
apoptotic fraction of cells (MZ7MEL; 24 h, 0.01 µM): 0.0133 ± 0.0057
apoptotic fraction of cells (MZ7MEL; 24 h, 0.0316 µM): 0.0129 ± 0.0041
apoptotic fraction of cells (MZ7MEL; 24 h, 0.1 µM): 0.013 ± 0.0026
apoptotic fraction of cells (MZ7MEL; 24 h, 0.316 µM): 0.021 ± 0.003
apoptotic fraction of cells (MZ7MEL; 24 h, 1 µM): 0.03 ± 0.0062
apoptotic fraction of cells (MZ7MEL; 24 h, 3.16 µM): 0.0358 ± 0.0086
apoptotic fraction of cells (MZ7MEL; 48 h, 0.00316 µM): 0.02 ± 0.0038
apoptotic fraction of cells (MZ7MEL; 48 h, 0.01 µM): 0.0157 ± 0.01
apoptotic fraction of cells (MZ7MEL; 48 h, 0.0316 µM): 0.0142 ± 0.0074
apoptotic fraction of cells (MZ7MEL; 48 h, 0.1 µM): 0.0195 ± 0.0025
apoptotic fraction of cells (MZ7MEL; 48 h, 0.316 µM): 0.0385 ± 0.0078
apoptotic fraction of cells (MZ7MEL; 48 h, 1 µM): 0.0514 ± 0.0021
apoptotic fraction of cells (MZ7MEL; 48 h, 3.16 µM): 0.0696 ± 0.0091
apoptotic fraction of cells (MZ7MEL; 72 h, 0.00316 µM): 0.0201 ± 0.0046
apoptotic fraction of cells (MZ7MEL; 72 h, 0.01 µM): 0.0173 ± 0.0037
apoptotic fraction of cells (MZ7MEL; 72 h, 0.0316 µM): 0.0366 ± 0.013
apoptotic fraction of cells (MZ7MEL; 72 h, 0.1 µM): 0.108 ± 0.021
apoptotic fraction of cells (MZ7MEL; 72 h, 0.316 µM): 0.158 ± 0.042
apoptotic fraction of cells (MZ7MEL; 72 h, 1 µM): 0.239 ± 0.049
apoptotic fraction of cells (MZ7MEL; 72 h, 3.16 µM): 0.314 ± 0.037
apoptotic fraction of cells (WM115; 24 h, 0.00316 µM): 0.0496 ± 0.013
apoptotic fraction of cells (WM115; 24 h, 0.01 µM): 0.0509 ± 0.0084
apoptotic fraction of cells (WM115; 24 h, 0.0316 µM): 0.0515 ± 0.014
apoptotic fraction of cells (WM115; 24 h, 0.1 µM): 0.0423 ± 0.006
apoptotic fraction of cells (WM115; 24 h, 0.316 µM): 0.0578 ± 0.011
apoptotic fraction of cells (WM115; 24 h, 1 µM): 0.102 ± 0.011
apoptotic fraction of cells (WM115; 24 h, 3.16 µM): 0.143 ± 0.033
apoptotic fraction of cells (WM115; 48 h, 0.00316 µM): 0.0459 ± 0.013
apoptotic fraction of cells (WM115; 48 h, 0.01 µM): 0.0343 ± 0.0045
apoptotic fraction of cells (WM115; 48 h, 0.0316 µM): 0.0345 ± 0.012
apoptotic fraction of cells (WM115; 48 h, 0.1 µM): 0.0394 ± 0.0017
apoptotic fraction of cells (WM115; 48 h, 0.316 µM): 0.072 ± 0.015
apoptotic fraction of cells (WM115; 48 h, 1 µM): 0.186 ± 0.011
apoptotic fraction of cells (WM115; 48 h, 3.16 µM): 0.269 ± 0.038
apoptotic fraction of cells (WM115; 72 h, 0.00316 µM): 0.0278 ± 0.0048
apoptotic fraction of cells (WM115; 72 h, 0.01 µM): 0.027 ± 0.0041
apoptotic fraction of cells (WM115; 72 h, 0.0316 µM): 0.0324 ± 0.0039
apoptotic fraction of cells (WM115; 72 h, 0.1 µM): 0.0559 ± 0.007
apoptotic fraction of cells (WM115; 72 h, 0.316 µM): 0.115 ± 0.013
apoptotic fraction of cells (WM115; 72 h, 1 µM): 0.302 ± 0.045
apoptotic fraction of cells (WM115; 72 h, 3.16 µM): 0.456 ± 0.041
relative viability (COLO858 [2]; 24 h, 0.00316 µM): 0.844 ± 0.41
relative viability (COLO858 [2]; 24 h, 0.01 µM): 1.09 ± 0.26
relative viability (COLO858 [2]; 24 h, 0.0316 µM): 1.24 ± 0.37
relative viability (COLO858 [2]; 24 h, 0.1 µM): 1.12 ± 0.3
relative viability (COLO858 [2]; 24 h, 0.316 µM): 1.01 ± 0.29
relative viability (COLO858 [2]; 24 h, 1 µM): 0.937 ± 0.25
relative viability (COLO858 [2]; 24 h, 3.16 µM): 0.856 ± 0.27
relative viability (COLO858 [2]; 48 h, 0.00316 µM): 0.983 ± 0.024
relative viability (COLO858 [2]; 48 h, 0.01 µM): 1.05 ± 0.024
relative viability (COLO858 [2]; 48 h, 0.0316 µM): 1.06 ± 0.043
relative viability (COLO858 [2]; 48 h, 0.1 µM): 0.702 ± 0.056
relative viability (COLO858 [2]; 48 h, 0.316 µM): 0.455 ± 0.011
relative viability (COLO858 [2]; 48 h, 1 µM): 0.374 ± 0.014
relative viability (COLO858 [2]; 48 h, 3.16 µM): 0.315 ± 0.0075
relative viability (COLO858 [2]; 72 h, 0.00316 µM): 0.974 ± 0.046
relative viability (COLO858 [2]; 72 h, 0.01 µM): 1.05 ± 0.11
relative viability (COLO858 [2]; 72 h, 0.0316 µM): 0.843 ± 0.16
relative viability (COLO858 [2]; 72 h, 0.1 µM): 0.545 ± 0.077
relative viability (COLO858 [2]; 72 h, 0.316 µM): 0.427 ± 0.065
relative viability (COLO858 [2]; 72 h, 1 µM): 0.342 ± 0.041
relative viability (COLO858 [2]; 72 h, 3.16 µM): 0.28 ± 0.021
relative viability (C32; 24 h, 0.00316 µM): 1.02 ± 0.16
relative viability (C32; 24 h, 0.01 µM): 1.02 ± 0.11
relative viability (C32; 24 h, 0.0316 µM): 1 ± 0.086
relative viability (C32; 24 h, 0.1 µM): 0.891 ± 0.066
relative viability (C32; 24 h, 0.316 µM): 0.938 ± 0.046
relative viability (C32; 24 h, 1 µM): 0.861 ± 0.058
relative viability (C32; 24 h, 3.16 µM): 0.811 ± 0.094
relative viability (C32; 48 h, 0.00316 µM): 1.24 ± 0.16
relative viability (C32; 48 h, 0.01 µM): 1.09 ± 0.32
relative viability (C32; 48 h, 0.0316 µM): 1.15 ± 0.15
relative viability (C32; 48 h, 0.1 µM): 0.959 ± 0.092
relative viability (C32; 48 h, 0.316 µM): 0.71 ± 0.12
relative viability (C32; 48 h, 1 µM): 0.322 ± 0.055
relative viability (C32; 48 h, 3.16 µM): 0.127 ± 0.016
relative viability (C32; 72 h, 0.00316 µM): 0.891 ± 0.18
relative viability (C32; 72 h, 0.01 µM): 0.998 ± 0.1
relative viability (C32; 72 h, 0.0316 µM): 0.952 ± 0.1
relative viability (C32; 72 h, 0.1 µM): 0.698 ± 0.027
relative viability (C32; 72 h, 0.316 µM): 0.347 ± 0.059
relative viability (C32; 72 h, 1 µM): 0.112 ± 0.033
relative viability (C32; 72 h, 3.16 µM): 0.0615 ± 0.021
